According to patent US7183253B2, “Substantially pure glycopeptide antibiotics AC-98-1, AC-98-2, AC-98-3, AC-98-4 and AC-98-5” (Wyeth Holdings Corp., priority 2001, dated 2007):
≈ marks a conversion by molar mass, not a printed value. Numbered stars: 1 amine (or outer) side, 2 acyl side, 3 side chain; on linkers, the order of the positions; unused ones are H or OH. Square brackets hold non-standard residues; d marks the D form. Peptide text beside a SMILES is read from it. * marks the point of attachment. ξ: configuration not given here. X1 = N=C1NCC(C(O)C(N[*:1])C(=O)[*:2])N1C1OC(CO)C(O)C(O)C1O; ξEnduracididine(βξ-OH,4'ξ) = N=C1NCC(C(O)C(N)C(=O)O)N1; X2 = OCC1OC(OC2C(CO)OC(*)C(O)C2O)C(O)C(O)C1O; ξPhe(βξ-Me) = CC(c1ccccc1)C(N)C(=O)O

Columns and labels:
[1] = tested on: Staphylococcus aureus Smith; assay: In vivo antibacterial activity in infected mice; conditions: female CD-1 mice infected intraperitoneally with Staphylococcus aureus Smith; treated intravenously 30 minutes before infection; read-out: ED50 (iv, mg/kg) Staphylococcus aureus
Experimental: The in vivo antibacterial activity of substantially pure glycopeptides AC-98-1, AC-98-2, AC-98-3, AC-98-4, and AC-98-5 is established by infecting female CD-1 mice from Charles River Laboratories, weighing 20+/−2 g each, intraperitoneally with 6.5×10^5 CFU/0.5 ml of broth of Staphylococcus aureus Smith. The mice are treated intravenously, 30 minutes before infection with the indicated dose of the test compound in 0.2 ml of water.

[2] = tested on: Micrococcus luteus (ATCC 9341); assay: In vitro antibacterial activity, agar dilution MIC; type: cell-based; conditions: ATCC9341, Mueller-Hinton agar, 5% sheep blood, 18 hours
Experimental: (§1) The in vitro antibacterial activity of substantially pure glycopeptide antibiotics AC-98-1, AC-98-2, AC-98-3, AC-98-4, and AC-98-5 from Examples 2 and 3 is determined against a spectrum of bacteria by a standard agar dilution method. Mueller-Hinton agar containing 5% sheep blood and two-fold decreasing concentrations of substantially pure glycopeptide antibiotics AC-98-1, AC-98-2, AC-98-3, AC-98-4, and AC-98-5 from Examples 2 and 3 are poured into petri dishes. The agar surfaces are inoculated with 1 to 5×10^4 colony forming units of bacteria by means of a Steers replicating device. The lowest concentration of antibiotic that inhibited the growth of a bacterial strain after 18 hours incubation is recorded as the minimal inhibitory concentration for that strain.

[3] = tested on: Streptococcus pneumoniae (ID-4444); assay: In vitro antibacterial activity, agar dilution MIC; type: cell-based; conditions: Mueller-Hinton agar, 5% sheep blood, 18 hours
Experimental: as §1

[4] = tested on: Escherichia coli (ATCC 25922); assay: In vitro antibacterial activity, agar dilution MIC; type: cell-based; conditions: ATCC25922, Mueller-Hinton agar, 5% sheep blood, 18 hours
Experimental: as §1

[5] = tested on: Staphylococcus aureus (ID-4379); assay: In vitro antibacterial activity, agar dilution MIC; type: cell-based; conditions: Mueller-Hinton agar, 5% sheep blood, 18 hours
Experimental: as §1

Escherichia coli (J2175) = assay: In vitro antibacterial activity, agar dilution MIC; type: cell-based; conditions: Mueller-Hinton agar, 5% sheep blood, 18 hours
Experimental: as §1

[6] = tested on: Streptococcus pneumoniae (GC1889); assay: In vitro antibacterial activity, agar dilution MIC; type: cell-based; conditions: Mueller-Hinton agar, 5% sheep blood, 18 hours
Experimental: as §1

[7] = tested on: Enterococcus faecium (ID-3301); assay: In vitro antibacterial activity, agar dilution MIC; type: cell-based; conditions: Mueller-Hinton agar, 5% sheep blood, 18 hours
Experimental: as §1

[8] = tested on: Enterococcus faecium (ID-3953); assay: In vitro antibacterial activity, agar dilution MIC; type: cell-based; conditions: Mueller-Hinton agar, 5% sheep blood, 18 hours
Experimental: as §1

Compound	ED50 [1]	MIC [2]	MIC [3]	MIC [4]	MIC [5]	MIC (Escherichia coli (J2175))	MIC [6]	MIC [7]	MIC [8]
CC(c1ccccc1)C1NC(=O)CNC(=O)C(CO)NC(=O)C(C(O)C2CNC(=N)N2C2OC(CO)C(O)C(O)C2O)NC(=O)C(C(O)C2CNC(=N)N2)NC(=O)C(Cc2ccc(OC3OC(CO)C(OC4OC(CO)C(O)C(O)C4O)C(O)C3O)cc2)NC1=O (stereo not drawn) [AC-98-1] (cyclo(G[ξPhe(βξ-Me)]Y(X2)[ξEnduracididine(βξ-OH,4'ξ)][X1]S); configuration not given here)	20 mg/kg	64 mg/mL (≈ 49.4 mM)	> 32 mg/mL						
CC(c1ccccc1)C1NC(=O)CNC(=O)C(CO)NC(=O)C(C(O)C2CNC(=N)N2C2OC(CO)C(O)C(O)C2O)NC(=O)C(C(O)C2CNC(=N)N2)NC(=O)C(Cc2ccc(O)cc2)NC1=O (stereo not drawn) [AC-98-2] (cyclo(G[ξPhe(βξ-Me)]Y[ξEnduracididine(βξ-OH,4'ξ)][X1]S); configuration not given here)	> 32 mg/kg	16 mg/mL (≈ 16.5 mM)	> 64 mg/mL	64 mg/mL (≈ 65.9 mM)	64 mg/mL (≈ 65.9 mM)	64 mg/mL (≈ 65.9 mM)			
CC(C)CC(=O)OC1C(OC2C(CO)OC(Oc3ccc(CC4NC(=O)C(C(C)c5ccccc5)NC(=O)CNC(=O)C(CO)NC(=O)C(C(O)C5CNC(=N)N5C5OC(CO)C(O)C(O)C5O)NC(=O)C(C(O)C5CNC(=N)N5)NC4=O)cc3)C(O)C2O)OC(CO)C(O)C1O (stereo not drawn) [AC-98-3]	3.8 mg/kg	2 mg/mL (≈ 1.45 mM)	8 mg/mL (≈ 5.8 mM)		8 mg/mL (≈ 5.8 mM)		4 mg/mL (≈ 2.9 mM)	64 mg/mL (≈ 46.4 mM)	64 mg/mL (≈ 46.4 mM)
CC(C)CC(=O)OC1C(O)C(CO)OC(OC2C(CO)OC(Oc3ccc(CC4NC(=O)C(C(C)c5ccccc5)NC(=O)CNC(=O)C(CO)NC(=O)C(C(O)C5CNC(=N)N5C5OC(CO)C(O)C(O)C5O)NC(=O)C(C(O)C5CNC(=N)N5)NC4=O)cc3)C(O)C2O)C1O (stereo not drawn) [AC-98-4]	2.6 mg/kg	2 mg/mL (≈ 1.45 mM)	4 mg/mL (≈ 2.9 mM)		4 mg/mL (≈ 2.9 mM)		4 mg/mL (≈ 2.9 mM)	64 mg/mL (≈ 46.4 mM)	64 mg/mL (≈ 46.4 mM)
CC(C)CC(=O)OC1C(CO)OC(OC2C(CO)OC(Oc3ccc(CC4NC(=O)C(C(C)c5ccccc5)NC(=O)CNC(=O)C(CO)NC(=O)C(C(O)C5CNC(=N)N5C5OC(CO)C(O)C(O)C5O)NC(=O)C(C(O)C5CNC(=N)N5)NC4=O)cc3)C(O)C2O)C(O)C1O (stereo not drawn) [AC-98-5]	0.6 mg/kg	1 mg/mL (≈ 0.725 mM)	2 mg/mL (≈ 1.45 mM)		4 mg/mL (≈ 2.9 mM)	64 mg/mL (≈ 46.4 mM)		16 mg/mL (≈ 11.6 mM)	32 mg/mL (≈ 23.2 mM)
